How the values were obtained:
[1] = tested on: lysosomal and autophagy genes; assay: Expression analysis of lysosomal and autophagy genes in HeLa cells; format: cell-based, human; settings: HeLa cells treated with MK2206
Method: FIG. 24. […] (b) Immunoblot analysis of LC3 lipidation. […] (d) Expression analysis of lysosomal and autophagy genes in HeLa cells treated with MK2206. Gene expression was normalized relative to the housekeeping gene, GAPDH. The dashed line indicates relative gene expression in untreated cells. […] Scale bar, 10 μm (a), 50 nm (c) and 20 μm (f).
Control (Coriell Institute, USA) and JNCL fibroblasts (Gaslini Institute, Italy) were grown in DMEM (1:1, HyClone) supplemented with 10% heat-inactivated fetal bovine serum (FBS, Atlanta Biologicals), 2 mM L-glutamine, 100 U/ml penicillin and […] streptomycin (Invitrogen). […]
Total RNA was extracted from the control and JNCL fibroblasts and from WT and Cln3^Δex7-8 cortical neuron cultures using the RNEasy kit (Qiagen) according to the manufacturer's instructions. Half of the mouse brain was processed for the RNA extraction and one microgram was used for complementary DNA synthesis by QuantiTect Reverse Transcription kit (Qiagen). The primers for PCR with reverse transcription reactions are listed in Table St Quantitative real-time PCR was performed by using iQ SYBR Green Supermix on the CFX96 Touch Real-Time Detection System (Bio-Rad Laboratories). […] Relative gene expression was determined using the ΔΔCT method, normalizing to GAPDH (for human genes) and cyclophilin (for mouse genes). […]

TFE3 = TFE3 nuclear translocation in HeLa cells; format: cell-based, human; settings: HeLa cells transfected with TFE3-3×Flag
Description: FIG. 23. Pharmacological inhibition of AKT induces nuclear translocation of TFE3 and MITF. HeLa cells were transiently transfected with TFE3-3×Flag (a) and MITF-3×Flag (b) and analyzed by confocal microscopy. Scale bar is 10 μm.

lysosomal genes = assay: Real-time qPCR in primary cortical neuron cultures; format: cell-based, mouse; settings: cortical neurons from WT and Cln3^Δex7-8 embryos, 100 mM trehalose
Method: Cortical and Hippocampal neurons were prepared from E17.5 and postnatal day 0-1 mice and plated on poly-D-lysine coated six-well plates (BD Biosciences) in Neurobasal medium supplemented with GlutaMAX-I (Invitrogen), B-27 and 1% FBS. At days in vitro (DIV) 4, neurons were treated with 100 mM trehalose. At DIV 8, neurons were collected and RNA extraction was performed.
Total RNA was extracted from the control and JNCL fibroblasts and from WT and Cln3^Δex7-8 cortical neuron cultures using the RNEasy kit (Qiagen) according to the manufacturer's instructions. Half of the mouse brain was processed for the RNA extraction and one microgram was used for complementary DNA synthesis by QuantiTect Reverse Transcription kit (Qiagen). The primers for PCR with reverse transcription reactions are listed in Table St Quantitative real-time PCR was performed by using iQ SYBR Green Supermix on the CFX96 Touch Real-Time Detection System (Bio-Rad Laboratories). Samples were heated for 3 min at 95° C. and amplified in 39 cycles for 11 s at 95° C., 45 s at 60° C. with last cycle of 10 s at 95° C., 5 s at 65° C. and 5 s at 95° C. Analyses were conducted using CFX manager software (Bio-Rad) and the threshold cycle (CT) was extracted from the PCR amplification plot. Relative gene expression was determined using the ΔΔCT method, normalizing to GAPDH (for human genes) and cyclophilin (for mouse genes). […]

Cln3^Δex7-8 and WT mice = assay: Auditory brainstem response (ABR) measurements; format: in vivo, mouse; settings: 10-month-old mice, both genotypes, vs untreated age-matched controls
Method: ABRs were measured as previously described^69. Briefly, 10-month-old mice (n=4-6 per genotype/treatment group) were anaesthetized using an intraperitoneal injection of ketamine (100 mg/kg) and xylazine (10 mg/kg) and then immobilized in a head holder. Normal body temperature was maintained throughout the procedure by placing the mice on a heating pad. Pure tone stimuli from 4 to 48 kHz were generated using Tucker-Davis Technologies System 3 digital signal processing hardware and software (Tucker-Davis Technologies, Alachua, Fla., USA), and the intensity of the tone stimuli was calibrated using a type 4,938 ¼″ pressure-field calibration microphone (Bruel and Kjar, Nrum, Denmark). Response signals were recorded with subcutaneous needle electrodes inserted at the vertex of the scalp, the postauricular region and the back leg (ground)^69. Auditory thresholds were determined by decreasing the sound intensity of each stimulus from 90 to 10 dB in 5 dB steps, until the lowest sound intensity with reproducible and recognizable waves in the response was reached. Mean hearing thresholds±s.d. (dB SPL) were plotted as a function of stimulus frequency (kHz). Statistical analysis consisted of one-way analyses of variance to reveal overall trends accompanied by two-tailed Student's t-tests at individual frequencies to evaluate frequency-specific effects. […]

Cln3^Δex7-8 mice = assay: Wet brain weight; format: in vivo, mouse; settings: 12-month-old Cln3^Δex7-8 mice, trehalose treatment; untreated 0.355±0.024 g, WT 0.516±0.021 g
Method: Cln3^Δex7-8 mice (stock no. 004685; Cln3^tm1.1Mem/J; CD-1 background)^32 were obtained from the Jackson Laboratory. Control (CD-1) and Cln3^Δex7-8 mice were housed 3-4 per cage in a room with a 12-h light/12-h dark cycle. Food and water were provided ad libitum. All mice used in this study were analyzed at 8 and 12 months of age and were littermates produced by crossing heterozygous Cln3^Δex7-8 mice. Only males were used for this analysis. Investigators were blinded when analyzing the data, and no randomization was necessary. No data were excluded from this study.
Trehalose (Swanson) was dissolved in drinking water to a final concentration of 2% and changed twice a week. Trehalose-containing water was given to Cln3^Δex7-8 and WT mice by spontaneous oral administration starting at 21 days of age and continuing until the day the mice died naturally (life span assessment) or were sacrificed for other studies.

| SMILES | expression of lysosomal and autophagy genes [1] | TFE3 nuclear translocation (TFE3) | expression of lysosomal genes (lysosomal genes) | ABR thresholds (Cln3^Δex7-8 and WT mice) | wet brain weight (Cln3^Δex7-8 mice) [g] |
| --- | --- | --- | --- | --- | --- |
| Cl.NC1(c2ccc(-c3nc4ccn5c(=O)[nH]nc5c4cc3-c3ccccc3)cc2)CCC1 [MK2206, 8-[4-(1-aminocyclobutyl)phenyl]-9-phenyl-1,2,4-triazolo[3,4-f][1,6]naphthyridin-3(2H)-one] | upregulated the expression of lysosomal and autophagy genes | promoted nuclear translocation of these two factors | – | – | – |
| OC[C@H]1O[C@H](O[C@H]2O[C@H](CO)[C@@H](O)[C@H](O)[C@H]2O)[C@H](O)[C@@H](O)[C@@H]1O [trehalose, a-D-glucopyranosyl a-D-glucopyranoside] | – | – | transcriptional activation of lysosomal genes | lower ABR thresholds | 0.473 ± 0.028 |
